{"source": "paper PMC3168589", "about": "(The European journal of neuroscience, 2011)", "key": {"[1]": {"test_system": "CREB phosphorylation in hippocampal pyramidal neurons", "experiment": "CREB phosphorylation", "assay_type": "cell-based, rat (Sprague-Dawley, 1- to 2-d-old pups)", "settings": "for concentrations inducing pCREB signal statistically different from vehicle: CRF F5,184 = 36.59, P < 0.001, UCN F5,175 = 23.00, P < 0.001; for τ of pCREB increase (time course): CRF df = 128, R^2 = 0.58, UCN df = 193, R^2 = 0.3, nonlinear curve fit"}, "[2]": {"test_system": "CRFR1", "settings": "modified yeast cell screen; ref Ladds et al., 2003; cited from earlier work"}, "[3]": {"test_system": "MAPK signaling in human myocytes", "settings": "UCN, but not CRF, ref Grammatopoulos et al., 2000; cited from earlier work"}, "[4]": {"test_system": "CRFR1α", "settings": "stably transfected cell lines; ref Grammatopoulos et al., 2000; cited from earlier work"}, "[5]": {"molecular_target": "CRFR1", "settings": "read-out: Ki for CRFR1, ref Perrin et al., 1993; cited from earlier work"}, "[6]": {"test_system": "hippocampal neurons", "settings": "2002, cited from earlier work"}, "[7]": {"test_system": "CREB phosphorylation in hippocampal neurons", "settings": "10 μM H89, hippocampal neurons; ref Bayatti et al., 2003; cited from earlier work"}, "[8]": {"test_system": "cAMP in hippocampal pyramidal neurons", "experiment": "cAMP assay", "assay_type": "cell-based, rat (Sprague-Dawley, 1- to 2-d-old pups)", "settings": "ISO 10 μM, 15 min, with IBMX 75 μM; positive control; P < 0.001 vs. '0 min'"}}, "note": "“Also recorded” adds a separate entry of the source. Read-outs that look alike come from different tables or passages of the source. The star is where a group is joined. Myristoyl = CCCCCCCCCCCCCC(=O)*", "data": [{"molecule": "pertussis toxin [PTX]", "values": [{"measurement": "effect on UCN-induced CREB phosphorylation", "setting": "[1]; PTX 500 ng/mL, 18 hr pre-treatment, UCN 40 nM, F3,116 = 40.60, P > 0.05", "result": "did not affect"}]}, {"molecule": "rat urocortin I [UCN]", "values": [{"measurement": "concentrations inducing pCREB signal statistically different from vehicle", "setting": "[1]", "result": "≥ 40", "unit": "nM"}, {"measurement": "τ of pCREB increase (time course)", "setting": "[1]", "result": "~ 7 min"}, {"measurement": "CRFR1-dependent G protein activation", "setting": "[2]", "result": "CRFR1-dependent activation of Gαq"}, {"measurement": "activation of MAPK signaling", "setting": "[3]", "result": "activates MAPK signaling"}, {"measurement": "cAMP activation, CRF compared with UCN", "setting": "[4]", "result": "induce cAMP activation equally"}]}, {"molecule": "N#CC(=C(/N)Sc1ccccc1N)/C(C#N)=C(/N)Sc1ccccc1N", "note": "[U0126]", "values": [{"measurement": "effect on CRF-induced CREB phosphorylation", "setting": "[1]; U0126 10 μM, CRF 40 nM, F3,78 = 18.69, P > 0.05", "result": "failed to affect; also recorded: unaffected"}, {"measurement": "effect on STR-induced CREB phosphorylation", "setting": "[1]; U0126 (10 μM), STR (70 nM), F3,126 = 43.18, P > 0.05, data not shown", "result": "unaffected"}, {"measurement": "effect on UCN-induced CREB phosphorylation", "setting": "[1]; U0126 (10 μM), UCN 40 nM, F3,128 = 28.68, P < 0.001", "result": "attenuated; also recorded: attenuated, but did not block"}]}, {"molecule": "cholera toxin [CTX]", "values": [{"measurement": "effect on CRF-induced CREB phosphorylation", "setting": "[1]", "result": "abolished; also recorded: blocked"}, {"measurement": "effect on UCN-induced CREB phosphorylation", "setting": "[1]", "result": "abolished; also recorded: blocked"}]}, {"molecule": "CCCCN(CC)c1nc(C)nc2c1c(C)cn2-c1c(C)cc(C)cc1C", "note": "[CP154526]", "values": [{"measurement": "effect on STR-induced CREB phosphorylation", "setting": "[1]; CP154526 (100 nM) with STR 70 nM, F3,117 = 55.29, P < 0.001", "result": "blocked"}]}, {"molecule": "O=C1OC2(c3ccccc31)c1ccc(O)c(O)c1Oc1c2ccc(O)c1O", "note": "[gallein]", "values": [{"measurement": "effect on CRF-induced CREB phosphorylation", "setting": "[1]; gallein 75 μM, CRF 40 nM, 15 min, F3,117 = 30.17, P < 0.001", "result": "blocked"}, {"measurement": "effect on UCN-induced CREB phosphorylation", "setting": "[1]; gallein 75 μM, UCN 40 nM, 15 min, F3,118 = 21.74, P < 0.001", "result": "blocked"}]}, {"molecule": "COc1cccc(-c2cc(=O)c3ccccc3o2)c1N", "note": "[PD98059]", "values": [{"measurement": "effect on CRF-induced CREB phosphorylation", "setting": "[1]; PD98059 25 μM, CRF 40 nM, F3,86 = 30.25, P > 0.05", "result": "failed to affect; also recorded: unaffected"}, {"measurement": "effect on STR-induced CREB phosphorylation", "setting": "[1]; PD98059 (25 μM), STR (70 nM), F3,122 = 51.88, P > 0.05, data not shown", "result": "unaffected"}, {"measurement": "effect on UCN-induced CREB phosphorylation", "setting": "[1]; PD98059 (25 μM), UCN 40 nM, F3,126 = 31.29, P < 0.001", "result": "attenuated; also recorded: attenuated, but did not block"}]}, {"molecule": "Nc1ncnc2c1ncn2C1CCCO1", "note": "(stereo not shown) [SQ22536]", "values": [{"measurement": "effect on CRF-induced CREB phosphorylation", "setting": "[1]; SQ22536 90 μM, CRF 40 nM, F3,83 = 22.02, P > 0.05", "result": "no effect; also recorded: failed to affect"}, {"measurement": "effect on UCN-induced CREB phosphorylation", "setting": "[1]; SQ22536 90 μM, UCN 40 nM, F3,113 = 25.34, P > 0.05", "result": "no effect; also recorded: failed to affect"}]}, {"molecule": "human/rat corticotropin releasing factor [CRF]", "values": [{"measurement": "concentrations inducing pCREB signal statistically different from vehicle", "setting": "[1]", "result": "≥ 40", "unit": "nM"}, {"measurement": "τ of pCREB increase (time course)", "setting": "[1]", "result": "~ 10 min"}, {"measurement": "Ki", "setting": "[5]", "result": "5.2 to 11", "unit": "nM"}, {"measurement": "cAMP activation, CRF compared with UCN", "setting": "[4]", "result": "induce cAMP activation equally"}, {"measurement": "effect on hippocampal neuron excitability", "setting": "[6]; ref Aldenhoff et al., 1983, Blank et al.", "result": "rapidly increases hippocampal neuron excitability"}, {"measurement": "effect on hippocampal LTP", "setting": "[6]; ref Blank et al.", "result": "enhances hippocampal LTP"}]}, {"molecule": "PKI 14-22 amide myristoylated: second PKA inhibitor (Myristoyl-SGRTGRRNA-NH2; SMILES CCCCCCCCCCCCCC(=O)N[C@@H](CO)C(=O)NCC(=O)N[C@@H](CCCNC(=N)N)C(=O)N[C@H](C(=O)NCC(=O)N[C@@H](CCCNC(=N)N)C(=O)N[C@@H](CCCNC(=N)N)C(=O)N[C@@H](CC(N)=O)C(=O)N[C@@H](C)C(N)=O)[C@@H](C)O; UniProt P61925 14-22, looked up, fragment)", "values": [{"measurement": "effect on CRF-induced CREB phosphorylation", "setting": "[1]; PKI 14-22 amide myristoylated 1 μM, CRF 40 nM, F3,133 = 38.91, P > 0.05, data not shown", "result": "failed to block"}, {"measurement": "effect on UCN-induced CREB phosphorylation", "setting": "[1]; PKI 14-22 amide myristoylated 1 μM, UCN 40 nM, F3,113 = 39.24, P > 0.05, data not shown", "result": "failed to block"}]}, {"molecule": "O=S(=O)(NCCNC/C=C/c1ccc(Br)cc1)c1cccc2cnccc12", "note": "[H89]", "values": [{"measurement": "effect on CRF-induced CREB phosphorylation", "setting": "[1]; H89 2 μM, CRF 40 nM, F3,105 = 44.94, P > 0.05", "result": "did not block; also recorded: failed to block"}, {"measurement": "effect on UCN-induced CREB phosphorylation", "setting": "[1]; H89 2 μM, UCN 40 nM, F3,118 = 27.19, P > 0.05", "result": "failed to block; also recorded: did not block"}, {"measurement": "involvement of PKA in CRF-induced CREB phosphorylation", "setting": "[7]", "result": "implicated PKA in CRF-induced CREB phosphorylation"}]}, {"molecule": "CC(C)NCC(O)c1ccc(O)c(O)c1", "note": "(stereo not shown) [ISO, isoproterenol]", "values": [{"measurement": "cAMP increase", "setting": "[8]", "result": "significantly increased cAMP levels"}]}]}
